Measurements: ChEMBL document CHEMBL4118089, “Pyrazine Analogs for the Treatment of Protozoal Infections” (ACS Med Chem Lett, 2017)

Tests used:
Plasmodium falciparum [1] = experiment: Antiplasmodial activity against Plasmodium falciparum infected in mouse; assay type: functional
Plasmodium falciparum [2] = experiment: Antiplasmodial activity against Plasmodium falciparum; assay type: functional, organism-based

SMILES	ED90 (Plasmodium falciparum [1])	IC50 (Plasmodium falciparum [2])
Cc1cncc(-c2cncc(-c3ccc(C(=O)N4CCNCC4)cc3)n2)c1	2.2 mg/kg	35 nM
O=C(c1ccc(-c2cncc(-c3cncc(F)c3)n2)cc1)N1CCNCC1	1.5 mg/kg	25 nM
